The numbers were not newly measured in patent US20220000750A1, “THE PROCESS FOR THE PREPARATION AND USE OF HAIR TREATMENT COMPOSITIONS CONTAINING ORGANIC C1-C6 ALKOXY SILANES” (Henkel AG & Co. KGaA, priority 2019, published 2022), which cites them from elsewhere.

The conditions of the series: 25° C.

Consider `CCN(Cc1cccc(S(=O)(=O)[O-])c1)c1ccc(C(=C2C=CC(=[N+](CC)Cc3cccc(S(=O)(=O)[O-])c3)C=C2)c2ccccc2S(=O)(=O)[O-])cc1.[Na+].[Na+]` [Acid Blue 9], for which the solubility in water entry is listed as “more than 20 % by weight”.

For `O=S(=O)([O-])c1ccc(N=Nc2c(O)ccc3ccccc23)cc1.[Na+]` [Acid Orange 7, sodium salt of 4-[(2-hydroxy-1-naphthyl)azo]benzene sulphonate], the solubility in water result is “more than 7 g/L”.

As for `Nc1cc(S(=O)(=O)[O-])cc2cc(S(=O)(=O)[O-])c(N=Nc3ccccc3)c(O)c12.[Na+].[Na+]` [Acid Red 33, diantrium salt of 5-amino-4-hydroxy-3-(phenylazo)-naphthalene-2,7-disulphonate], the solubility in water was 2500 µg/mL.

`O=C([O-])c1c(Cl)c(Cl)c(Cl)c(Cl)c1-c1c2c(Br)cc(=O)c(Br)c-2oc2c(Br)c(O)cc(Br)c12.O=C([O-])c1c(Cl)c(Cl)c(Cl)c(Cl)c1-c1c2c(Br)cc(=O)c(Br)c-2oc2c(Br)c(O)cc(Br)c12.[Na+].[Na+]` [Acid Red 92, disodium salt of 3,4,5,6-tetrachloro-2-(1,4,5,8-tetrabromo-6-hydroxy-3-oxoxanthen-9-yl)benzoic acid]: the solubility in water entry is given as “greater than 10 g/L”.

As for `O=C([O-])C1=NN(c2ccc(S(=O)(=O)[O-])cc2)C(=O)C1N=Nc1ccc(S(=O)(=O)[O-])cc1.[Na+].[Na+].[Na+]` (centres unmarked) [Acid Yellow 23, trisodium salt of 4,5-dihydro-5-oxo-1-(4-sulfophenyl)-4-((4-sulfophenyl)azo)-1H-pyrazole-3-carboxylic acid], the “solubility in water (in words)” value was “highly soluble”.
